Assay results taken from patent publication US4471131A, “Novel silyl esters of N-phosphonomethylglycine” (Monsanto Company, priority 1983, dated 1984).

Legend:
Assay in all cases: post-emergence herbicidal activity, greenhouse
Format in all cases: in vivo
Barnyardgrass = system: Barnyardgrass
Description: (§1) A good grade of top soil is placed in aluminum pans having holes in the bottom and compacted to a depth of 0.95 to 1.27 cm. from the top of the pan. A predetermined number of seeds of each of several dicotyledonous and moncotyledonous annual plant species and/or vegetative propagules for the perennial plant species were placed on the soil and pressed into the soil surface. The seeds and/or vegetative propagules are covered with soil and leveled. The pans are then placed on a sand bench in the greenhouse and watered from below as needed. After the plants reach the desired age (two to three weeks), each pan, except for the control pans, is removed individually to a spraying chamber and sprayed by means of an atomizer at the rates noted. In the spray solution is an amount of an emulsifying agent mixture to give a spray solution or suspension which contains about 0.4% by weight of the emulsifier. The spray solution or suspension contains a sufficient amount of the candidate chemical in order to give application rates corresponding to those set forth in the tables. The pans were returned to the greenhouse and watered as before and the injury to the plants as compared to the control is observed at approximately two and four weeks and the results recorded. In the tables, WAT means "weeks after treatment."
(§2) The post-emergent herbicidal activity index used in Tables II and III is as follows:
(§3) The plant species utilized in these tests are identified by letter in accordance with the following legend: […]

Canada Thistle = settings: Table II, formulated immediately prior to treatment
Description: as §1, §2, §3

Cocklebur = system: Cocklebur
Description: as §1, §2, §3

Common Lambsquarters = system: Common Lambsquarters
Description: as §1, §2, §3

Downy Brome = system: Downy Brome
Description: as §1, §2, §3

Hemp Sesbania = settings: Table III, 2 WAT
Description: as §1, §2, §3

Johnsongrass = settings: Table II, formulated immediately prior to treatment
Description: as §1, §2, §3

Large Crabgrass = settings: Table III; 2 WAT; 5.6 kg/h
Description: as §1, §2, §3

Morningglory = system: Morningglory
Description: as §1, §2, §3

Panicum Spp = settings: Table III; 2 WAT; 5.6 kg/h
Description: as §1, §2, §3

Pennsylvania Smartweed = system: Pennsylvania Smartweed
Description: as §1, §2, §3

Quackgrass = settings: Table II, formulated immediately prior to treatment
Description: as §1, §2, §3

Rice = settings: Table III, 2 WAT
Description: as §1, §2, §3

Soybean = settings: Table III, 2 WAT
Description: as §1, §2, §3

Sugar Beet = settings: Table III; 2 WAT; 5.6 kg/h
Description: as §1, §2, §3

Velvetleaf = system: Velvetleaf
Description: as §1, §2, §3

Wild Buckwheat = settings: Table III, 2 WAT
Description: as §1, §2, §3

Yellow Nutsedge = settings: Table II, formulated immediately prior to treatment
Description: as §1, §2, §3

[1] = Table II, 2 WAT, 5.6 kg/h, formulated immediately prior to treatment
[2] = Table II, 2 WAT, 11.2 kg/h, formulated immediately prior to treatment
[3] = Table II, 4 WAT, 5.6 kg/h, formulated immediately prior to treatment
[4] = Table II, 4 WAT, 11.2 kg/h, formulated immediately prior to treatment

`CC(C)(C)[Si](C)(C)OP(=O)(CNCC(=O)OCCc1ccccc1)O[Si](C)(C)C(C)(C)C` [Ex. 10, Glycine, N--((Bis[((1,1-Dimethylethyl)Dimethylsilyl)Oxy]Phosphinyl)Methyl)-,2-Phenylethyl Ester Hydrate] was tested, and the “Plant Response Index (K)” value (Barnyardgrass; [1]) was 1 (25-49% inhibition), the “Plant Response Index (K)” value (Barnyardgrass; [2]) was 2 (50-74% inhibition) and the “Plant Response Index (K)” value (Barnyardgrass; [3]) was 2 (50-74% inhibition). For the same molecule, the “Plant Response Index (K)” value (Barnyardgrass; [4]) was 3 (75-99% inhibition), the “Plant Response Index (K)” value (Barnyardgrass; Table III, 2 WAT, 5.6 kg/h) was 2 (50-74% inhibition) and the “Plant Response Index (A)” value (Canada Thistle; 2 WAT, 5.6 kg/h) was 0 (0-24% inhibition). The “Plant Response Index (A)” value (Canada Thistle; 2 WAT, 11.2 kg/h) was 2 (50-74% inhibition), the “Plant Response Index (A)” value (Canada Thistle; 4 WAT, 5.6 kg/h) was 0 (0-24% inhibition) and the “Plant Response Index (A)” value (Canada Thistle; 4 WAT, 11.2 kg/h) was 2 (50-74% inhibition). The “Plant Response Index (B)” value (Cocklebur; [1]) was 1 (25-49% inhibition), the “Plant Response Index (B)” value (Cocklebur; [2]) was 2 (50-74% inhibition) and the “Plant Response Index (B)” value (Cocklebur; [3]) was 0 (0-24% inhibition). For the same molecule, the “Plant Response Index (B)” value (Cocklebur; [4]) was 2 (50-74% inhibition), the “Plant Response Index (B)” value (Cocklebur; Table III, 2 WAT, 1.1 kg/h) was 0 (0-24% inhibition) and the “Plant Response Index (B)” value (Cocklebur; Table III, 2 WAT, 5.6 kg/h) was 2 (50-74% inhibition). The “Plant Response Index (E)” value (Common Lambsquarters; [1]) was 2 (50-74% inhibition), the “Plant Response Index (E)” value (Common Lambsquarters; [2]) was 3 (75-99% inhibition) and the “Plant Response Index (E)” value (Common Lambsquarters; [3]) was 3 (75-99% inhibition). The “Plant Response Index (E)” value (Common Lambsquarters; [4]) was 3 (75-99% inhibition), the “Plant Response Index (E)” value (Common Lambsquarters; Table III, 2 WAT, 1.1 kg/h) was 2 (50-74% inhibition) and the “Plant Response Index (E)” value (Common Lambsquarters; Table III, 2 WAT, 5.6 kg/h) was 3 (75-99% inhibition). For the same molecule, the “Plant Response Index (J)” value (Downy Brome; [1]) was 0 (0-24% inhibition), the “Plant Response Index (J)” value (Downy Brome; [2]) was 1 (25-49% inhibition) and the “Plant Response Index (J)” value (Downy Brome; [3]) was 0 (0-24% inhibition). The “Plant Response Index (J)” value (Downy Brome; [4]) was 1 (25-49% inhibition), the “Plant Response Index (J)” value (Downy Brome; Table III, 2 WAT, 1.1 kg/h) was 0 (0-24% inhibition) and the “Plant Response Index (J)” value (Downy Brome; Table III, 2 WAT, 5.6 kg/h) was 1 (25-49% inhibition). The “Plant Response Index (R)” value (Hemp Sesbania; 1.1 kg/h) was 0 (0-24% inhibition), the “Plant Response Index (R)” value (Hemp Sesbania; 5.6 kg/h) was 0 (0-24% inhibition) and the “Plant Response Index (I)” value (Johnsongrass; 2 WAT, 5.6 kg/h) was 0 (0-24% inhibition). For the same molecule, the “Plant Response Index (I)” value (Johnsongrass; 2 WAT, 11.2 kg/h) was 1 (25-49% inhibition), the “Plant Response Index (I)” value (Johnsongrass; 4 WAT, 5.6 kg/h) was 0 (0-24% inhibition) and the “Plant Response Index (I)” value (Johnsongrass; 4 WAT, 11.2 kg/h) was 1 (25-49% inhibition). For the same molecule, the “Plant Response Index (T)” value (Large Crabgrass) was 3 (75-99% inhibition), the “Plant Response Index (D)” value (Morningglory; [1]) was 1 (25-49% inhibition) and the “Plant Response Index (D)” value (Morningglory; [2]) was 2 (50-74% inhibition). For the same molecule, the “Plant Response Index (D)” value (Morningglory; [3]) was 0 (0-24% inhibition), the “Plant Response Index (D)” value (Morningglory; [4]) was 2 (50-74% inhibition) and the “Plant Response Index (D)” value (Morningglory; Table III, 2 WAT, 5.6 kg/h) was 0 (0-24% inhibition). For the same molecule, the “Plant Response Index (S)” value (Panicum Spp) was 3 (75-99% inhibition), the “Plant Response Index (F)” value (Pennsylvania Smartweed; [1]) was 1 (25-49% inhibition) and the “Plant Response Index (F)” value (Pennsylvania Smartweed; [2]) was 3 (75-99% inhibition). For the same molecule, the “Plant Response Index (F)” value (Pennsylvania Smartweed; [3]) was 1 (25-49% inhibition), the “Plant Response Index (F)” value (Pennsylvania Smartweed; [4]) was 3 (75-99% inhibition) and the “Plant Response Index (F)” value (Pennsylvania Smartweed; Table III, 2 WAT, 1.1 kg/h) was 2 (50-74% inhibition). For the same molecule, the “Plant Response Index (F)” value (Pennsylvania Smartweed; Table III, 2 WAT, 5.6 kg/h) was 2 (50-74% inhibition), the “Plant Response Index (H)” value (Quackgrass; 2 WAT, 5.6 kg/h) was 0 (0-24% inhibition) and the “Plant Response Index (H)” value (Quackgrass; 2 WAT, 11.2 kg/h) was 1 (25-49% inhibition). The “Plant Response Index (H)” value (Quackgrass; 4 WAT, 5.6 kg/h) was 0 (0-24% inhibition), the “Plant Response Index (H)” value (Quackgrass; 4 WAT, 11.2 kg/h) was 1 (25-49% inhibition) and the “Plant Response Index (O)” value (Rice; 1.1 kg/h) was 0 (0-24% inhibition). The “Plant Response Index (O)” value (Rice; 5.6 kg/h) was 0 (0-24% inhibition), the “Plant Response Index (L)” value (Soybean; 1.1 kg/h) was 0 (0-24% inhibition) and the “Plant Response Index (L)” value (Soybean; 5.6 kg/h) was 0 (0-24% inhibition). The “Plant Response Index (M)” value (Sugar Beet) was 3 (75-99% inhibition), the “Plant Response Index (C)” value (Velvetleaf; [1]) was 0 (0-24% inhibition) and the “Plant Response Index (C)” value (Velvetleaf; [2]) was 2 (50-74% inhibition). The “Plant Response Index (C)” value (Velvetleaf; [3]) was 0 (0-24% inhibition), the “Plant Response Index (C)” value (Velvetleaf; [4]) was 2 (50-74% inhibition) and the “Plant Response Index (C)” value (Velvetleaf; Table III, 2 WAT, 5.6 kg/h) was 2 (50-74% inhibition). For the same molecule, the “Plant Response Index (Q)” value (Wild Buckwheat; 1.1 kg/h) was 0 (0-24% inhibition), the “Plant Response Index (Q)” value (Wild Buckwheat; 5.6 kg/h) was 0 (0-24% inhibition) and the “Plant Response Index (G)” value (Yellow Nutsedge; 2 WAT, 5.6 kg/h) was 1 (25-49% inhibition). The “Plant Response Index (G)” value (Yellow Nutsedge; 2 WAT, 11.2 kg/h) was 2 (50-74% inhibition), the “Plant Response Index (G)” value (Yellow Nutsedge; 4 WAT, 5.6 kg/h) was 2 (50-74% inhibition) and the “Plant Response Index (G)” value (Yellow Nutsedge; 4 WAT, 11.2 kg/h) was 2 (50-74% inhibition).
